Results published in PubChem BioAssay (NCI).
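Each compound was tested at five concentrations against cells in 96-well plates for 48 hours. Abbreviation: GI50, concentration required for 50% inhibition of growth. TGI denotes the concentration required for complete inhibition of growth.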

Columns and labels:
Assay in all cases: DTP human tumour cell line panel, 48 h
[1] = system: SK-MEL-2 melanoma
[2] = system: OVCAR-3 ovarian
[3] = system: NCI-H522 lung
[4] = system: UO-31 renal
[5] = system: HL-60(TB) leukemia
[6] = system: NCI-H23 lung
[7] = system: SW-620 colon
[8] = system: ACHN renal
[9] = system: HOP-62 NSCLC
[10] = system: LOX IMVI melanoma

O=C(Nc1ccc(Oc2cccc(Cl)c2)c(Cl)c1)c1cccnc1
GI50 [1]: 2110 nM
TGI [1]: 20000 nM
GI50 [2]: 1220 nM
TGI [2]: 4280 nM
GI50 [3]: 968 nM
TGI [3]: 5890 nM
GI50 [4]: 3630 nM
TGI [4]: 30000 nM
GI50 [5]: 1510 nM
TGI [5]: 6160 nM
GI50 [6]: 3300 nM
TGI [6]: > 50000 nM
GI50 [7]: 1210 nM
TGI [7]: > 50000 nM
GI50 [8]: 4060 nM
TGI [8]: > 50000 nM
GI50 [9]: 1800 nM
TGI [9]: 25100 nM
GI50 [10]: 2900 nM
TGI [10]: 13000 nM

COc1cc(C2CC(c3cc(Cl)c(C)cc3O)=NN2c2ccc(S(N)(=O)=O)cc2)cc(OC)c1OC (stereo not given)
GI50 [1]: 3530 nM
TGI [1]: 12000 nM
GI50 [2]: 2190 nM
TGI [2]: 4770 nM
GI50 [3]: 2450 nM
TGI [3]: 6730 nM
GI50 [4]: 2190 nM
TGI [4]: 28900 nM
GI50 [5]: 2950 nM
TGI [5]: 14800 nM
GI50 [6]: 2110 nM
TGI [6]: 5320 nM
GI50 [7]: 3350 nM
TGI [7]: 10700 nM
GI50 [8]: 2780 nM
TGI [8]: 8330 nM
GI50 [9]: 2100 nM
TGI [9]: 4560 nM
GI50 [10]: 2080 nM
TGI [10]: 4280 nM

O=C(O)CNCc1c2ccccc2nc2ccccc12
TGI [1]: > 100000 nM
TGI [2]: > 100000 nM
TGI [3]: 57500 nM
TGI [4]: > 91500 nM
TGI [5]: 29600 nM
TGI [6]: > 100000 nM
TGI [7]: > 100000 nM
TGI [8]: > 100000 nM
TGI [9]: > 100000 nM
TGI [10]: > 100000 nM

O=C1/C(=C/c2ccccc2)CN(C(=O)Oc2ccccc2)C/C1=C\c1ccccc1
TGI [1]: 65500 nM
TGI [2]: > 100000 nM
TGI [3]: > 100000 nM
TGI [4]: 88900 nM
TGI [5]: 5780 nM
TGI [6]: > 100000 nM
TGI [7]: > 100000 nM
TGI [8]: > 100000 nM
TGI [9]: 39700 nM
TGI [10]: 29900 nM

O=C1c2ccccc2-c2c1c1ccccc1c(=O)n2CCCNCCO
GI50 [1]: 2840 nM
TGI [1]: 6150 nM
GI50 [2]: 1070 nM
TGI [2]: 6130 nM
GI50 [3]: 689 nM
TGI [3]: 4330 nM
GI50 [4]: 303 nM
TGI [4]: 2060 nM
GI50 [5]: 175 nM
TGI [5]: 880 nM
GI50 [6]: 818 nM
TGI [6]: 4970 nM
GI50 [7]: 145 nM
TGI [7]: 5260 nM
GI50 [8]: 195 nM
TGI [8]: 906 nM
GI50 [9]: 317 nM
TGI [9]: 2610 nM
GI50 [10]: 206 nM
TGI [10]: 2790 nM

CN(C)/C=C/C(=O)c1cccc(C(=O)/C=C/N(C)C)n1
TGI [1]: > 100000 nM
TGI [2]: > 100000 nM
TGI [3]: > 100000 nM
TGI [4]: > 100000 nM
TGI [5]: > 100000 nM
TGI [6]: > 100000 nM
TGI [7]: > 100000 nM
TGI [8]: > 100000 nM
TGI [9]: > 100000 nM
TGI [10]: > 100000 nM

CO[C@H]1/C=C/C=C/C=C/C[C@H](OC(=O)[C@@H](C)NC(=O)C2CCCCC2)[C@H](C)[C@@H](O)/C(C)=C\CCC2=CC(=O)C=C(NC(=O)C1)C2=O
GI50 [1]: 131 nM
TGI [1]: 715 nM
GI50 [2]: 154 nM
TGI [2]: 997 nM
GI50 [3]: 104 nM
TGI [3]: 823 nM
GI50 [4]: 352 nM
TGI [4]: 2790 nM
GI50 [5]: 167 nM
TGI [5]: 839 nM
GI50 [6]: 115 nM
TGI [6]: 812 nM
GI50 [7]: 179 nM
TGI [7]: 3630 nM
GI50 [8]: 223 nM
TGI [8]: 1310 nM
GI50 [9]: 125 nM
TGI [9]: 680 nM
GI50 [10]: 104 nM
TGI [10]: 547 nM
